# Assay results from PMC7377239, “Cardiovascular Effects of Polychlorinated Biphenyls and Their Major Metabolites” (Environmental Health Perspectives, 2020).
# Like-named read-outs stand apart in the source and are kept apart here.
# Legend:
# [1] = system: iCell cardiomyocytes (human iPSC-derived cardiomyocytes); test: High-content imaging of cytotoxicity and mitochondrial integrity in iPSC-CMs; assay type: cell-based; conditions: Homo sapiens, Cardiomyocyte, cardiomyocytes (cm)
# In short: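 This assay measured cytotoxicity and mitochondrial integrity in iPSC cardiomyocytes held in 40μL maintenance medium. After compound exposure, a 2× staining solution with Hoechst 33342 (4μg/mL) and MitoTracker™ Orange (0.4μM) was applied for 15 min at 37°C. Cells were washed, fixed with 3.7% formaldehyde, imaged on DAPI and Cy3 channels, and scored in MetaXpress®.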
# [2] = system: HUVECs; test: High-content imaging cytotoxicity in HUVECs, 24 h; assay type: cell-based, human; conditions: Homo sapiens, HUVEC, 24 h, HUVEC, 24 hr
# In short: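 Read-out: multiwavelength high-content imaging of Hoechst 33342, MitoTracker Orange and calcein AM after 24 h compound exposure of confluent HUVEC monolayers. POD values were set using a one-SD cutoff from vehicle (0.5% DMSO) means; with no concentration–response, 100μM was assigned as no observable adverse effect level.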
compound,measurement,setting,value
Oc1ccccc1-c1ccc(Cl)cc1 [2'-OH-PCB 3],minimal effective concentration,"[1]; 1.5 h, cam, 90 min, read-out: POD cm.cam.90min",32.8 µM
same,minimal effective concentration,"[1]; 1.5 h, mii, 90 min, read-out: POD cm.mii.90min",9.15 µM
same,minimal effective concentration,"[1]; 1.5 h, mito, 90 min, read-out: POD cm.mito.90min",41.4 µM
same,minimal effective concentration,"[1]; 1.5 h, tc, 90 min, read-out: POD cm.tc.90min",34.5 µM
same,minimal effective concentration,"[1]; 24 h, cam, 24 hrs, read-out: POD cm.cam.24hrs",40.4 µM
same,minimal effective concentration,"[1]; 24 h, mii, 24 hrs, read-out: POD cm.mii.24hrs",6.56 µM
same,minimal effective concentration,"[1]; 24 h, mito, 24 hrs, read-out: POD cm.mito.24hrs",29.8 µM
same,minimal effective concentration,"[1]; 24 h, tc, 24 hrs, read-out: POD cm.tc.24hrs",35.9 µM
same,minimal effective concentration,"[2]; cyto, read-out: POD huvec.cyto.24hr",5.19 µM
same,minimal effective concentration,"[2]; mito, read-out: POD huvec.mito.24hr",4.06 µM
same,minimal effective concentration,"[2]; mitoint, read-out: POD huvec.mitoint.24hr",34.4 µM
same,minimal effective concentration,"[2]; nma, read-out: POD huvec.nma.24hr",1.6 µM
same,minimal effective concentration,"[2]; tc, read-out: POD huvec.tc.24hr",5.19 µM
